Values after ≈ are worked out from the molar mass of the structure shown.
Key:
S. aureus FDA209 [1] = test: Laurdan generalized polarization membrane fluidity assay; format: cell-based; conditions: mid-log S. aureus FDA209
Procedure: Mid-log phase S. aureus FDA209 cells were used for all experiments. A) Membrane fluidity was evaluated with a Laurdan generalized polarization (GP) assay. Cells were exposed at time 0 to DMSO, benzyl alcohol (BnOH, a membrane fluidizer [50 mM]), or D66 (1x MIC95=130 μM). Mean and SEM of three biological replicates performed with technical triplicates. B) Membrane permeability was monitored by PI fluorescence. Cells were exposed at time 0 to DMSO, SDS [0.3%], or D66. Samples were processed at the timepoints shown. Mean and SEM of three biological replicates performed with technical triplicates. C) Intracellular pH was monitored with the fluorescent probe BCECF-AM. Cells were exposed at time 0 to DMSO, the protonophore CCCP [100 μM], or D66. Mean and SEM of three biological replicates performed with technical triplicates. D) Intracellular ATP levels measured using the Promega BacTiter-Glo kit after 30 minutes of treatment with DMSO, chloramphenicol (Chlor), or D66. Mean and SEM of three biological replicates performed with technical triplicates. E) Respiration rates of cells incubated with resazurin and treated at time 0 as indicated. Mean and […]

RAW 264.7 cells = test: Mitochondrial membrane potential with TMRM; conditions: uninfected RAW 264.7 cells; D66 first two hours; CCCP 7 μM
[2] = test system: S. Typhimurium strain SL1344; format: in vivo
Procedure: FIG. 5A-C. […] Mice were euthanized 48 hours after infection. […] Significance was determined by Mann-Whitney.
Female C57Bl/6 7-8-week-old mice were IP inoculated with S. Typhimurium strain SL1344. Six mice per cohort were IP-treated with 100 μL of vehicle (50% DMSO), 50 mg/kg of chloramphenicol, or 50 mg/kg of D66 at 10 minutes and 24 hours post-infection. Mice were euthanized at 48 hours by CO2 asphyxiation, followed by cervical dislocation. Spleen and liver were collected, homogenized in 1 mL PBS and serially diluted for plating to enumerate CFU. The experiment was performed twice independently with 7×10^3 CFU, 3×10^4 CFU respectively, as determined by plating. A ROUT test for outliers and a Mann-Whitney test for significance were performed in GraphPad Prism.

S. aureus FDA209 [3] = test: Growth inhibition in broth (MIC95); format: cell-based; conditions: Staphylococcus aureus
Procedure: FIG. 8A-B. […] inhibits the growth of Gram-positive bacteria in broth. A) Dose response curves monitoring staphylococcal and B. subtills growth in the presence of […] from an OD600 of 0.01, normalized to growth in 2% DMSO after 18 hours. Mean and SEM of at least three biological replicates performed with technical triplicates. B) Table of […] concentrations that inhibit growth. For comparison, S. Typhimurium is included.

[4] = test system: S. Typhimurium (SL1344 with sifB::gfp) in RAW 264.7 macrophages; test: SAFIRE assay: bacterial accumulation (GFP) in macrophages; format: cell-based; conditions: Salmonella enterica, RAW264.7, 16 h, read-out: IC50 in SAFIRE
Procedure: FIG. 1A-D. D66 is a small molecule that prevents S. Typhimurium replication and/or survival in macrophages. A). Structure of D66. B) RAW264.7 macrophage-like cells were infected with S. Typhimurium harboring a chromosomal sifB: : gfp reporter, treated with DMSO or D66 at two hours after infection, and monitored for bacterial accumulation (GFP+Macrophage Area) over 16 hours using the SAFIRE (Screen for Anti-infectives using Fluorescence microscopy of Intracellular Enterobacteriaceae) assay. The IC50 value is indicated. Mean and SD of biological duplicates with technical duplicates across 9 dilutions of D66. C, D) CFU assays were performed with RAW264.7 or HeLa cells infected with S. Typhimurium SL1344 or 14028 for two hours and treated for 16 hours with DMSO or 1.5-fold dilutions of D66, prior to lysis and plating for CFU. Symbols on the Y-axes are the CFU value from DMSO-treated samples. […]
SAFIRE and CFU assays: SAFIRE assays were performed with RAW 264.7 (TIB-71) macrophages seeded at […] in 100 μL of complete DMEM in 96-well tissue culture plates (Greiner, 655180) and incubated at 37° C. with 5% CO2. […] After 16 hours of treatment, samples were imaged on a spinning disk confocal microscope, and a MATLAB algorithm calculated bacterial accumulation (GFP fluorescence) within macrophages, as defined by DAPI (DNA) and MitoTracker Red, a vital dye for mitochondrial voltage. […]

`O=C(Nc1cc(Cl)cc(Cl)c1)N1CCCN(Cc2ccccc2)CC1` [D66] was tested. Which membrane fluidity (S. aureus FDA209 [1]) did it give?
The membrane fluidity was “rapidly increases membrane fluidity”.

And the “TMRM fluorescence (mitochondrial membrane potential)” value (RAW 264.7 cells)?
The value was “increased TMRM signal in a dose-dependent manner”.

And the “S. Typhimurium colonization of spleen and liver (tissue CFU)” value ([2]; C57Bl/6 mice, 50 mg/kg IP at 10 minutes and 24 hours post-inoculation, 48 hours, P<0.05 Mann-Whitney)?
The value was “reduced S. Typhimurium colonization in both tissues”.

What about the “survival and condition of infected treated mice” value ([2]; female, C57Bl/6, mouse, in vivo, ip, 50 mg/kg, 48 h) of the same compound?
The value was “survived in good condition out to 48 hours”.

And the MIC (S. aureus FDA209 [3])?
The MIC was 130 µM (≈ 49.2 µg/mL).

What about the IC50 [4] of the same compound?
Its IC50 is 6 ± 0.5 µM.

From US20250302846A1, “ANTIBIOTIC COMPOSITION AND METHODS OF USE THEREOF” (THE REGENTS OF THE UNIVERSITY OF COLORADO A BODY CORPORATE, priority 2022, published 2025)
